Literature values, collected in patent US6900203B2, “Optically active fluorinated vasoconstrictors, methods for making them, and anesthetic formulations comprising them” (Polium Technologies, Inc., priority 2002, dated 2005).
Read-outs that look alike come from different tables or passages of the source.

What was measured:
[1] = tested on: α2/β adrenergic receptors
[2] = tested on: α1/β adrenergic receptors
[3] = molecular target: α1-receptors; conditions: read-out: Receptor affinity α1
[4] = molecular target: β1 (Homo sapiens, UniProt P08588); conditions: read-out: Receptor affinity β1
β1, sequence (P08588 whole entry): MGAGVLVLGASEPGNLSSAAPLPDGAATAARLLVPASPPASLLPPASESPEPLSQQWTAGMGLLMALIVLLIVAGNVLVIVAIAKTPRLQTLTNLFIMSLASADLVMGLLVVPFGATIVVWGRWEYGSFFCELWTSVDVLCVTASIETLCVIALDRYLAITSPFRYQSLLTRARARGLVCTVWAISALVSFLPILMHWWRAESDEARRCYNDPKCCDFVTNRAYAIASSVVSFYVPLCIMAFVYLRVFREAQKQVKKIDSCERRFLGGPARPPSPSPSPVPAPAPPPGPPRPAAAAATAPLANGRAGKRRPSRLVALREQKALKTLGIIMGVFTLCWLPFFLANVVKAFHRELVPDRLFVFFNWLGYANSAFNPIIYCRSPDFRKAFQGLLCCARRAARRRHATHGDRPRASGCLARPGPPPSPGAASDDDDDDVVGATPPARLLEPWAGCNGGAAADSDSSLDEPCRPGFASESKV

[5] = molecular target: α2-receptors
[6] = molecular target: β2 (Homo sapiens, UniProt P07550); conditions: read-out: Receptor affinity β2
β2, sequence (P07550 whole entry): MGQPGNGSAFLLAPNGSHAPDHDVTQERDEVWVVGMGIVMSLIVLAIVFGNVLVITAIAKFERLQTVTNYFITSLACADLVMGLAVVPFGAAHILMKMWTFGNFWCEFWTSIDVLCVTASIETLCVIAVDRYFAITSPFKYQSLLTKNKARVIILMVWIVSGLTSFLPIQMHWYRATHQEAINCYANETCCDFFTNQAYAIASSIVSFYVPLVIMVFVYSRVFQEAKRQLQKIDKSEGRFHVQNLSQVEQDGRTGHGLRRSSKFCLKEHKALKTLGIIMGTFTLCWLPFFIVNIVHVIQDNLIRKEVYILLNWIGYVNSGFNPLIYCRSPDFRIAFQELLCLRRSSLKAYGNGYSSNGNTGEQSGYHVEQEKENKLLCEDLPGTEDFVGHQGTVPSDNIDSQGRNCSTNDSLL

[7] = molecular target: α-receptors; conditions: order of magnitude

| Structure (SMILES) | α2/β selectivity [1] | α1/β selectivity [2] | Ki [3] | Ki [4] | Ki ([5]; read-out: Receptor affinity α2) | Ki [6] | Ki ([5]; order of magnitude, read-out: binding constant with respect to α2-receptors) | binding constants with α-receptors [7] |
| --- | --- | --- | --- | --- | --- | --- | --- | --- |
| CNCC(O)c1cc(O)ccc1F (stereo not shown) [6F-phenylephrine] | 780 fold | 86-140 fold |  |  |  |  |  |  |
| CNC[C@H](O)c1ccc(O)c(O)c1F [(R)-2F-epinephrine] |  |  | ~25 µM | 0.56 ± 0.03 µM | 0.067 ± 0.003 µM | 0.11 ± 0.03 µM |  |  |
| CNC[C@H](O)c1cc(O)c(O)cc1F [(R)-6F-epinephrine, 2-methylamino-1R-[(3,4-dihydroxy-6-fluoro)-phenyl]ethanol] |  |  | 2.5 ± 0.1 µM | ~100 µM | 0.013 ± 0.002 µM | 38 ± 7 µM |  |  |
| CNC[C@H](O)c1ccc(O)c(O)c1 [(R)-epinephrine] |  |  |  |  | 0.013 ± 0.002 µM |  | ~0.01 µM |  |
| CNC[C@H](O)c1cccc(O)c1 [(R)-phenylephrine, 2-methylamino-1R-(3-hydroxyphenyl)ethanol] | 33 fold | 2-5 fold |  |  |  |  |  | on the order of several |
| CNC[C@@H](O)c1ccc(O)c(O)c1F [(S)-2F-epinephrine] |  |  | ~40 µM | ~150 µM | 0.053 ± 0.001 µM | ~25 µM |  |  |
| CNC[C@@H](O)c1cc(O)c(O)cc1F [(S)-6F-epinephrine] |  |  | ~70 µM | ~400 µM | 0.078 ± 0.001 µM | ~90 µM |  |  |
| CNC[C@@H](O)c1ccc(O)c(O)c1 [(S)-epinephrine] |  |  | ~20 µM |  | 0.045 ± 0.003 µM |  |  |  |
